One experiment concerns iWT cardiomyocytes. Kind of experiment: Traction force microscopy of paced engineered cardiomyocytes (force generation, beat rate), iWT. To be noted: wild-type cells, FIGS. 93-95. Format: cell-based, human. From the text:
FIG. 93 is a set of graphs showing force generation of engineered cardiomyocytes treated with a PI3K inhibitor (left) or PI3K activator (right). Relative change in force generation between iWT (black) and G296S (grey) cardiomyocytes after inhibition (circle) or activation (triangle) of P13K signaling. Traction force microscopy (TFM) measurements of CMs responding accurately to 1 Hz pacing. Data are mean±sem, *,p<0.05, **,p<0.005, ***p<0.0005 (Mann-Whitney test).
FIG. 94 is a schematic illustrating the postulated protein-protein interaction in wild-type (top) and G296S mutant (bottom) cardiomyocytes. Beat rate measurements between iWT (black) and G296S (grey) cardiomyocytes after inhibition (circle) or activation (triangle) of P13K signaling. TFM measurements of cardiomyocytes responding accurately to 1 Hz pacing. Data are mean±sem, *,p<0.05, ** p<0.005, ***p⋅<0.0005 (Mann-Whitney test).
A “scale-free” network (Barabasl and Albert, ⋅1999) of 716 nodes connected by 2,353 edges with an average 6.6 neighbors and path length of 4.3 (FIG. 90). Nodes were connected by edges representing physical (protein-protein) or functional (genetic, co-expression, co-occurrence) interactions. At least 5 sub-networks connected through 20 regulatory “hubs” were identified. […]

In experiment [1] the test system is hiPS cell-derived cardiomyocytes. Nature of the experiment: Calcium flux measurements of hiPS cell-derived cardiomyocytes. Format: cell-based, human. To be noted: isoproterenol followed by carbachol, FIG. 17. From the text:
A step-wise differentiation protocol was used to generate purified cardiomyocytes from the above-described iPS cell lines (FIG. 12) (Lian et al, 2012; Tohyama et al.,2013). […] The iPS cardiomyocytes spontaneously contracted, expressed high levels of sarcomeric and myofibril markers, and had membrane electrophysiology and gene expressions similar to human cardiomyocytes; 30% were binucleated (FIGS. 15 and 16). […] The protocol thus generated functional human cardiomyocytes suitable for deeper interrogation of cell identity and function.
In general terms: Calcium flux is commonly read through the fluorescence of an indicator in the cells.

Experimental findings from US20200308546A1, “ENGINEERED CARDIOMYOCYTES AND USES THREOF” (THE J. DAVID GLADSTONE INSTITUTES, A TESTAMENTARY TRUST …, priority 2016, published 2020) are described below.

`O=c1cc(N2CCOCC2)oc2c(-c3ccccc3)cccc12` [LY294002]: the beat rates result in the experiment on iWT cardiomyocytes was “no effect”. Consider `C[N+](C)(C)CCOC(N)=O` [carbachol], for which the calcium flux response entry in experiment [1] was “expected response”. Consider `CC(C)NCC(O)c1ccc(O)c(O)c1` (stereo not drawn) [isoproterenol], for which the calcium flux response result in experiment [1] is “expected response”.
